Assay results as given in ChEMBL document CHEMBL1147989, “Synthesis and structure-activity relationships of 4-hydroxy-4-phenylpiperidines as nociceptin receptor ligands: Part 2” (Bioorg Med Chem Lett, 2007).

What was measured:
Mu-type opioid receptor = Mu-type opioid receptor (Homo sapiens, UniProt P35372); test: Displacement of [3H]diprenorphine from human MOP receptor expressed in CHO cell membrane; assay type: cell membranes
Nociceptin receptor [1] = target: T1, Nociceptin receptor (Homo sapiens, UniProt P41146); test: Displacement of [125I][Tyr14]nociceptin FQ from human NOP receptor expressed in CHO cell membrane; assay type: cell membranes
[2] = target: Kappa-type opioid receptor (Homo sapiens, UniProt P41145); test: Displacement of [3H]diprenorphine from human KOP receptor expressed in CHO cell membrane; assay type: cell membranes
[3] = target: Delta-type opioid receptor (Homo sapiens, UniProt P41143); test: Displacement of [3H]diprenorphine from human DOP receptor expressed in CHO cell membrane; assay type: cell membranes
Nociceptin receptor [4] = target: T1, Nociceptin receptor; test: Agonist activity at human NOP receptor transfected in CHO cells assessed as stimulation of [35S]GTP-gamma-S at 100 uM; assay type: functional, cell-based
Nociceptin receptor [5] = target: T1, Nociceptin receptor; test: Agonist activity at human NOP receptor transfected in CHO cells assessed as stimulation of [35S]GTPgammaS at 1 uM; assay type: functional, cell-based
Nociceptin receptor [6] = target: T1, Nociceptin receptor; test: Agonist activity at human NOP receptor transfected in CHO cells assessed as stimulation of [35S]GTP-gamma-S at 0.1 uM; assay type: functional, cell-based
Nociceptin receptor [7] = target: T1, Nociceptin receptor; test: Activity at human NOP receptor transfected in CHO cells assessed as inhibition of [35S]GTP-gamma-S at 1 uM; assay type: functional, cell-based
Nociceptin receptor [8] = target: T1, Nociceptin receptor; test: Activity at human NOP receptor transfected in CHO cells assessed as inhibition of [35S]GTPgammaS at 10 uM; assay type: functional, cell-based

Mu-type opioid receptor, sequence (P35372 whole entry): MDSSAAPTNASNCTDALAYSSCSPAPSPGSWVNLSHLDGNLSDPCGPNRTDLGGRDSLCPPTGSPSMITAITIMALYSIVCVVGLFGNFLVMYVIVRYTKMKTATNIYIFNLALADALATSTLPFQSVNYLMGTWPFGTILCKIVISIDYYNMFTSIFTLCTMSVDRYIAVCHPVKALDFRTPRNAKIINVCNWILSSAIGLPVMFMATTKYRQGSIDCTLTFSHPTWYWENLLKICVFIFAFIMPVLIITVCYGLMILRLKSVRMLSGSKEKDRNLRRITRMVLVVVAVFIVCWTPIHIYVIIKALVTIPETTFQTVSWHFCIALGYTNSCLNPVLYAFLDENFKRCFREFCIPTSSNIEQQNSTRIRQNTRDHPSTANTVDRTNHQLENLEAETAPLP
T1 sequence (P41146 whole entry): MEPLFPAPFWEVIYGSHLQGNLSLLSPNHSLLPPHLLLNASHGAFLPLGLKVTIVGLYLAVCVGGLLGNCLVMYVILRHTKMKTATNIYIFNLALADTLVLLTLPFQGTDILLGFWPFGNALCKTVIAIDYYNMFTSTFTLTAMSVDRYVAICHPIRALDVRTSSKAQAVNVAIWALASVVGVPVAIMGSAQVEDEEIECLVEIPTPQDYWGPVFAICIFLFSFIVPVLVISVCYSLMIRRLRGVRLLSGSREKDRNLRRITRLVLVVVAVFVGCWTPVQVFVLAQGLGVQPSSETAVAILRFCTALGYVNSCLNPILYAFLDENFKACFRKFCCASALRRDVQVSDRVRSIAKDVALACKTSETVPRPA
Delta-type opioid receptor, sequence (P41143 whole entry): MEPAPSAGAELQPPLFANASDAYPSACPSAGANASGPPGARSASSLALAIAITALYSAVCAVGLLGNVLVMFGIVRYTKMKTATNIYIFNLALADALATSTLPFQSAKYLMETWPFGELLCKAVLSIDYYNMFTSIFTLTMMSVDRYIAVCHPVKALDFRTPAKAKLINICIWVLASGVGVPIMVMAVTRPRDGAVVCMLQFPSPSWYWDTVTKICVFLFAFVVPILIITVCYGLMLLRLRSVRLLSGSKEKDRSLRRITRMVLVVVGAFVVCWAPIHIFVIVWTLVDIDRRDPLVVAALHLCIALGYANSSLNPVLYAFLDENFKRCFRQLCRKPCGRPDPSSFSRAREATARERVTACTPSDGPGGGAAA
Kappa-type opioid receptor, sequence (P41145 whole entry): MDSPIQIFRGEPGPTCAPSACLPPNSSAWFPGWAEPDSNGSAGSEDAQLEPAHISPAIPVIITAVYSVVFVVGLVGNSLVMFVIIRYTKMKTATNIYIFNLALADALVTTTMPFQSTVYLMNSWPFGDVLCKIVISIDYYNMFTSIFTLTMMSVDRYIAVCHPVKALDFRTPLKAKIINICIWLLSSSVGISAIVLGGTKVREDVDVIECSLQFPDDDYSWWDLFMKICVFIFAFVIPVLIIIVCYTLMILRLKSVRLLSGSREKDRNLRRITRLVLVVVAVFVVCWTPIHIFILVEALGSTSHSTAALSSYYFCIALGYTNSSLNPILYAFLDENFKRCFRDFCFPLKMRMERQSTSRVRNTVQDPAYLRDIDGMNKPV

Row | Ki (Mu-type opioid receptor) [nM] | Ki (Nociceptin receptor [1]) [nM] | Ki [2] [nM] | Ki [3] [nM] | SMILES | also measured
1 | 351 | 0.9 | 146 | 1590 | CCS(=O)(=O)N1CCN(Cc2ccccc2C2(O)CCN(C(c3ccccc3Cl)c3ccccc3Cl)CC2)CC1 | –
2 | 271 | 15 | 122 | 777 | CCCS(=O)(=O)NCc1ccccc1C1(O)CCN(C(c2ccccc2Cl)c2ccccc2Cl)CC1 | –
3 | 502 | 110 | 1060 | 8900 | Cc1ccc(C(c2ccc(C)cc2)N2CCC(O)(c3ccccc3CN)CC2)cc1 | –
4 | 936 | 24 | 1700 | 6360 | OC1(c2ccc(Cl)cc2)CCN(C(c2ccccc2)c2ccccc2)CC1 | –
5 | 11100 | 588 | 10300 | 19200 | COc1ccc(C2(O)CCN(C(c3ccccc3)c3ccccc3)CC2)cc1 | –
6 | 11400 | 1750 | 19700 | 33300 | CCCc1ccc(C2(O)CCN(C(c3ccccc3)c3ccccc3)CC2)cc1 | –
7 | 145 | 1.9 | 261 | 1170 | OC1(c2ccccc2CN2CCNCC2)CCN(C(c2ccccc2Cl)c2ccccc2Cl)CC1 | –
8 | – | 4540 | – | – | CN(C)c1ccc(C2(O)CCN(C(c3ccccc3)c3ccccc3)CC2)cc1 | –
9 | 705 | 23 | 1990 | 5610 | OC1(c2cccc(F)c2)CCN(C(c2ccccc2)c2ccccc2)CC1 | Activity (Nociceptin receptor [4]): 61%
10 | 3080 | 674 | 2090 | 3990 | NCc1ccccc1C1(O)CCN(C(c2ccc(Cl)cc2)c2ccc(Cl)cc2)CC1 | –
11 | 756 | 15 | 2570 | 8880 | Cc1ccsc1C1(O)CCN(C(c2ccccc2)c2ccccc2)CC1 | –
12 | 771 | 14 | 759 | 3320 | OC1(c2ccc(F)cc2)CCN(C(c2ccccc2)c2ccccc2)CC1 | –
13 | 190 | 2.2 | 139 | 1700 | CN1CCN(Cc2ccccc2C2(O)CCN(C(c3ccccc3Cl)c3ccccc3Cl)CC2)CC1 | –
14 | – | 9160 | – | – | CCCCc1ccc(C2(O)CCN(C(c3ccccc3)c3ccccc3)CC2)cc1 | –
15 | 72 | 0.5 | 425 | 3700 | NCc1ccccc1C1(O)CCN(C(c2ccccc2)c2ccccc2Cl)CC1 (configuration not stated) | Activity (Nociceptin receptor [6]): 116%
16 | 616 | 1.8 | 278 | 3200 | NCc1ccccc1C1(O)CCN(C(c2ccccc2Br)c2ccccc2Br)CC1 | Activity (Nociceptin receptor [5]): 104%
17 | 616 | 9.6 | 771 | 9380 | NCc1ccccc1C1(O)CCN(C(c2cccc(F)c2)c2cccc(F)c2)CC1 | –
18 | 273 | 27 | 1150 | 7800 | Cc1cccc(C2(O)CCN(C(c3ccccc3)c3ccccc3)CC2)c1 | –
19 | 3360 | 1670 | 1800 | 13800 | OC1(CCCc2ccccc2)CCN(C(c2ccccc2)c2ccccc2)CC1 | –
20 | 452 | 4.6 | 664 | 99500 | NCc1ccccc1C1(O)CCN(CC2CCCCCC2)CC1 | inhibition (Nociceptin receptor [7]): 67%
21 | 304 | 12 | 330 | 2440 | CCNC(=O)NCc1ccccc1C1(O)CCN(C(c2ccccc2Cl)c2ccccc2Cl)CC1 | –
22 | 198 | 2 | 215 | 1990 | CNC(=O)NCc1ccccc1C1(O)CCN(C(c2ccccc2Cl)c2ccccc2Cl)CC1 | –

Row | Ki (Mu-type opioid receptor) [nM] | Ki (Nociceptin receptor [1]) [nM] | Ki [2] [nM] | Ki [3] [nM] | SMILES | also measured
23 | – | 455 | – | – | NCc1ccccc1C1(O)CCN(Cc2ccccc2)CC1 | –
24 | 72 | 1.1 | 279 | 3290 | NCc1ccccc1C1(O)CCN(C(c2ccccc2)c2ccccc2Br)CC1 (configuration not stated) | Activity (Nociceptin receptor [5]): 115%
25 | 8380 | 1450 | 61000 | 28400 | N#Cc1ccc(C2(O)CCN(C(c3ccccc3)c3ccccc3)CC2)cc1 | –
26 | 190 | 0.5 | 450 | 8440 | Cc1ccccc1C(c1ccccc1C)N1CCC(O)(c2ccccc2CN)CC1 | Activity (Nociceptin receptor [5]): 94%
27 | 2 | 0.4 | 15 | 1210 | CCCCC(c1ccccc1)N1CCC(O)(c2ccccc2CN)CC1 (configuration not stated) | –
28 | 2990 | 180 | 3670 | 9590 | COc1cccc(C2(O)CCN(C(c3ccccc3)c3ccccc3)CC2)c1 | –
29 | 353 | 0.6 | 186 | 3160 | CC(C)S(=O)(=O)N1CCN(Cc2ccccc2C2(O)CCN(C(c3ccccc3Cl)c3ccccc3Cl)CC2)CC1 | –
30 | 74 | 11 | 818 | 1670 | Cc1ccccc1C1(O)CCN(C(c2ccccc2)c2ccccc2)CC1 | Activity (Nociceptin receptor [4]): 69%
31 | – | 1270 | – | – | OC1(c2nccs2)CCN(C(c2ccccc2)c2ccccc2)CC1 | –
32 | 589 | 34 | 1740 | 5610 | OC1(c2ccccc2F)CCN(C(c2ccccc2)c2ccccc2)CC1 | –
33 | 163 | 4.1 | 174 | 518 | CC(C)S(=O)(=O)NCc1ccccc1C1(O)CCN(C(c2ccccc2Cl)c2ccccc2Cl)CC1 | –
34 | 11500 | 313 | 13200 | 45600 | OC1(c2ccccn2)CCN(C(c2ccccc2)c2ccccc2)CC1 | –
35 | 125 | 1.6 | 1660 | 13900 | NCc1ccccc1C1(O)CCN(C(c2ccccc2)c2ccccc2)CC1 | Ki (Mu-type opioid receptor; cho): 125 nM; Ki (Nociceptin receptor [1]; cho): 1.6 nM; Ki ([2]; cho): 1660 nM; Ki ([3]; cho): 13900 nM
36 | 167 | 0.7 | 255 | 3820 | CNCc1ccccc1C1(O)CCN(C(c2ccccc2Cl)c2ccccc2Cl)CC1 | –
37 | 1730 | 48 | 3410 | 8450 | OC1(c2cccs2)CCN(C(c2ccccc2)c2ccccc2)CC1 | –
38 | 120 | 5.9 | 323 | 2910 | OC1(c2ccccc2CN2CCOCC2)CCN(C(c2ccccc2Cl)c2ccccc2Cl)CC1 | –
39 | 3430 | 1280 | 11400 | 24900 | CCc1ccc(C2(O)CCN(C(c3ccccc3)c3ccccc3)CC2)cc1 | –
40 | 28 | 0.7 | 725 | 2870 | Cc1ccccc1C(c1ccccc1)N1CCC(O)(c2ccccc2CN)CC1 (configuration not stated) | Activity (Nociceptin receptor [6]): 119%
41 | 186 | 16 | 2770 | 4360 | OCc1ccccc1C1(O)CCN(C(c2ccccc2)c2ccccc2)CC1 | –
42 | 983 | 85 | 4160 | 4390 | COc1ccccc1C1(O)CCN(C(c2ccccc2)c2ccccc2)CC1 | –
43 | 181 | 5.5 | 1350 | 23400 | CC1(C)CCC(N2CCC(O)(c3ccccc3CN)CC2)c2ccccc21 (configuration not stated) | inhibition (Nociceptin receptor [8]): 43%

Row | SMILES | Ki (Mu-type opioid receptor) [nM] | Ki (Nociceptin receptor [1]) [nM] | Ki [2] [nM] | Ki [3] [nM] | also measured
44 | CCCCCCC1(O)CCN(C(c2ccccc2)c2ccccc2)CC1 | 8900 | 1150 | 9220 | 17900 | –
45 | CCCCC1(O)CCN(C(c2ccccc2)c2ccccc2)CC1 | 272 | 23 | 4560 | 18800 | –
46 | OC1(C2CCCCC2)CCN(C(c2ccccc2)c2ccccc2)CC1 | 407 | 17 | 387 | 8110 | Activity (Nociceptin receptor [4]): 121%
47 | NCc1ccccc1C1(O)CCN(C(c2ccccc2Cl)c2ccccc2Cl)CC1 | 249 | 0.5 | 747 | 3000 | Activity (Nociceptin receptor [5]): 102%
48 | OC1(c2ccc(Br)cc2)CCN(C(c2ccccc2)c2ccccc2)CC1 | 1060 | 51 | 2610 | 15200 | –
49 | CC(C)(C)C1(O)CCN(C(c2ccccc2)c2ccccc2)CC1 | 3600 | 62 | 1070 | 56600 | –
50 | CCCCCC(c1ccccc1)N1CCC(O)(c2ccccc2CN)CC1 (configuration not stated) | 2 | 0.5 | 30 | 606 | –
51 | OC1(Cc2ccccc2)CCN(C(c2ccccc2)c2ccccc2)CC1 | 10400 | 2180 | 1440 | 15000 | –
52 | OC1(C2CC2)CCN(C(c2ccccc2)c2ccccc2)CC1 | 18400 | 376 | 26400 | 131000 | –
53 | CC(C)C1(O)CCN(C(c2ccccc2)c2ccccc2)CC1 | 13200 | 433 | 7390 | 52800 | –
54 | NCc1ccccc1C1(O)CCN(C(c2ccccc2F)c2ccccc2F)CC1 | 37 | 0.5 | 116 | 3700 | –
55 | OC1(c2ccco2)CCN(C(c2ccccc2)c2ccccc2)CC1 | 4550 | 136 | 9640 | 14500 | –
56 | Cc1ccc(C2(O)CCN(C(c3ccccc3)c3ccccc3)CC2)cc1 | 940 | 55 | 4050 | 12100 | –
